According to patent US8410068B2, “Compounds for the treatment or alleviation of edema, and methods for their use” (Index Pharmaceuticals AB, priority 2007, dated 2013):
Where “and” joins values, the source holds several entries; their conditions need not be identical. Equal entries are not always repeated.

Legend:
[1] = test system: thioglycolate induced pleurisy; assay: Thioglycolate induced pleurisy; type: in vivo, C57/Bl6 mice; settings: 50 μg/mouse i.p. 20 min before induction of pleurisy
Experimental: Mice were anesthetized by an intraperitoneal injection of 0.15-0.20 ml of a mixture of ketamine (Ketalar® Parke-Davis; 25 mg/ml) and xylazine (Narcoxyl Vet.® Veterinaria AG; 5 mg/ml).
The left jugular vein was cannulated with polyethylene tubing (PE10) for intravenous administration (i.v.). A skin incision was made on the right side of the chest. Following dissection of the underlying muscle, pleurisy (inflammation of the lung sack) was induced by a single intrapleural injection of 100 μl of thioglycolate (Sigma). Sterile PBS was used as negative control.
FITC-conjugated dextran in PBS (100 μl, 30 mg/ml) was injected i.v. After 4 h, the animals were euthanized with an overdose of anaesthesia, the chest was carefully opened and the exudate was removed by aspiration and the volume noted. The thorax was then rinsed with 1 ml of ice-cold 3 mM EDTA in PBS. Exudate which was contaminated with red blood cells was discarded.
The exudate and rinsed material was centrifuged at 1500 g for 5 min and the supernatant was used for measurement of fluorescence intensity in a fluorometer (Fluoroskan Acsent, LabSystems) and clearance volume of FITC-dextran was calculated. […]
Cells from the exudate were stained with neutrophil and macrophage specific antibodies and were analyzed by flow cytometry (FACSort and CellQuest software, BD). […]

[2] = test system: tetradecanoylphorbol 13-acetate (TPA) induced ear edema; assay: TPA-induced ear edema model; type: in vivo, mice
Experimental: A stock solution of TPA was prepared by dissolving TPA in DMSO, 1 mg/mL, and was stored frozen at −80° C. For study B-E, a working solution was prepared with 200 μL of the TPA stock solution added to 800 μL acetone. The working solution was used the same day as it was prepared.
Each cage was identified by a cage card marked with study number, group number, ethical approval number, sex and animal ear numbers. The animals were individually marked on the tail with transverse lines corresponding to the animals' number, using a permanent-ink felt pen. An illustration of the protocols used for the different treatments is outlined in Table 4. The compounds were tested according to the same protocols with necessary modifications.
Intraperitoneal (i.p.) injections were performed by giving 100 μL in the lower right quadrant of the abdomen. Subcutaneous injections were done with 100 μL in the neck region. Intranasal administration was performed by letting the mouse inhale droplets into the nostrils, total volume 40 μL. All administrations were done on non-anesthetized mice.
Both outer ears of a non-anesthetized mouse were washed with mild soap (Palmolive, Sweden) using a soft tooth brush, the ears were dried with tissue and cleaned with tissue soaked with acetone. After allowing the acetone to evaporate, TPA or AA was applied on both sides, 10 μL, on each side of the ear with care to cover the whole ear. The mouse was held for 20 seconds to allow the solvent to evaporate.
Intraperitoneal injections were given in the lower right quadrant of the abdomen with the animal held in a supine position. Subcutaneous (s.c.) injections were given in the neck of the animals. Intranasal administrations were given to mice held in a slightly reclining position. With an adjustable micro-pipette 40 μL of the test substance was given in droplets on the nostrils and the mouse was allowed to aspirate at free will.
The ears of non-anesthetized mice were measured at different time points for up to 96 hours after the TPA was administered, or up to 24 hours for the AA model. The first measurements were done before the edema was induced. The thickness was recorded with a spring loaded dial micrometer (Limit, Thickness Gauge, accuracy 0.01 mm, contact area Ø6 mm, Luna AB, Allingsås, Sweden) in triplicates at all time points per ear.
The average thickness for both ears on a mouse was calculated and compared to the average thickness of the ears at the starting time point. The value obtained at the start of the experiment was set as 100%. The peak values and area under the curve (AUC) values for the treatment groups were calculated and compared to the inflamed control group, treated with PBS (set as 100%), and expressed as a percentage change (Δ% AUC).
Area under the curve (AUC) with base line set as 100 was calculated using GraphPad Prism version 4.03 for Windows (GraphPad Software, San Diego Calif. USA, www.graphpad.com).
AUC reduction and P-values were calculated against the positive control (TPA or AA+PBS).

G*G*A*ACAGTTCGTCCAT*G*G*C (phosphorothioate linkages, as printed in the source, key not given here) [IDX0150, oligonucleotide used as control; * = phosphorothioate modification]
reduction of number of PMN in pleural exudates ([1]; compared to inflamed mice (PBS)): 42% and 40.9%
reduction in clearance volume of pleural edema (vascular permeability) ([1]; compared to thioglycolate treatment): 68.2% and 69.2%
average inflammatory peak value of swelling ([2]; FIG. 2, 100 μg IDX0150, combined from 10 experiments, vs PBS vehicle with TPA, P<0.001): very high statistical significant reduction in peak values
Reduction of AUC compared to PBS ([2]; Study A / FIG. 1, 100 μg, one single injection (i.p. in Study A, s.c. in FIG. 1) 20 min before TPA, day 0): −38.9%
reduction of AUC ([2]; Study B, 100 μg s.c. 4 days before induction of edema): no reduction of AUC
reduction of AUC ([2]; Study C (repeat of B), 100 μg s.c. 4 days before induction of edema): −22%
reduction of AUC ([2]; Study D, 100 μg s.c. 2 days before induction of edema): −16.5%
reduction of AUC ([2]; Study E, 100 μg s.c. same day, approx. 20 min before induction): −27.3%
reduction of AUC ([2]; Study F, equal doses 50 μg s.c. same day as swelling induced): −31.1%
reduction of AUC ([2]; Study G, therapeutic, 100 μg s.c. 2 hours after induction of edema): −42.3%
reduction of AUC ([2]; Study H, 100 μg intranasal 4 days before swelling induced): −25.7%
reduction of AUC ([2]; Study I, 100 μg intranasal day 0, same day as edema induced): −28.4%
AUC reduced ([2]; Study J, therapeutic, 100 μg intranasal 2 hours after induction): −28.8%
reduction of AUC ([2]; Study K dose response, 0.1 μg s.c. day 0): −13.9%
reduction of AUC ([2]; Study K dose response, 1 μg s.c. day 0): −16.3%
reduction of AUC ([2]; Study K dose response, 10 μg s.c. day 0): −27.9%
reduction of AUC ([2]; Study K dose response, 100 μg s.c. day 0): −45%
reduction of AUC ([2]; Study O, 10 μg given s.c. on day 0 (Table 4: i.n.)): −25.5%
